Read-outs that look alike come from different tables or passages of the source.

This experiment concerns NF-κB activation. Kind of experiment: NF-κB activation reporter assay (pNFκB-Luc luciferase) under TNF-α stimulation. To be noted: for inhibition at 1 µg/mL / inhibition at 10 µg/mL: Homo sapiens, read-out: The rate of inhibitory activity against NF-κB activation (%). In kind it is cell-based, human. On the procedure: Using a transfection reagent (Effectene; QIAGEN), the human hepatoma cell strain HepG2 or the human hysterocarcinoma cell strain HeLa was transfected with the firefly luciferase gene (Luc) contained plasmid (pNF κB-Luc Reporter Plasmid; […]) which contained oligonucleotide having five tandem copies of NF-κB binding sequences ([…]) on a upstream region of Luc, according to the QUAGEN's protocol and it was incuvated for 6-24 hours. After addition of TNF-α (40 ng/ml) with or without the test compound, the cells were incuvated for 4 hours, and intracellular luciferase activity was measured with PicaGene LT (TOYO INK MFG Co., Ltd.) and chemical luminescence measurement device ([…]luor Plus; TECAN). The inhibition ratio was measured as a ratio to the value of the luciferase activity without the test compound.
In general terms: In a reporter assay the amount or activity of a reporter protein is the signal.

Setting [1] is: Concentration of the agent: 1 μg/mL, HepG2 or HeLa cells, TNF-α 40 ng/ml, 4 hours.
Setting [2] is: Concentration of the agent: 10 μg/mL, HepG2 or HeLa cells, TNF-α 40 ng/ml, 4 hours.

“5-Bromo-2-hydroxy-N-(2-phenethyl)benzamide [Compound 2]”: the “The rate of inhibitory activity against NF-κB activation (%)” value (“The rate of inhibitory activity … (%)” below) is 18.6% under setting [1] and 83.2% under setting [2].
Consider “5-Bromo-N-(3,5-dichloro)phenyl-2-hydroxybenzenesulfonamide [Compound 10]”, for which the “The rate of inhibitory activity … (%)” value runs as follows: under setting [1], 7.1%; under setting [2], 78.6%.
Regarding `O=C(NCc1cc(C(F)(F)F)cc(C(F)(F)F)c1)c1cc(Br)ccc1O` [Compound 1, N-{[3,5-bis(trifluoromethyl)phenyl]methyl}-5-bromo-2-hydroxybenzamide], the inhibition at 1 µg/mL under setting [1] was -33.6%. Moreover, under setting [2], the inhibition at 10 µg/mL turned out to be 54.4%.
With `O=C(NC1Cc2ccc(C(=O)N3CCOCC3)cc2C1)c1cc(Br)ccc1O` (centres unmarked) [Compound 3, 5-Bromo-2-hydroxy-N-[5-(morpholinocarbonyl)indan-2-yl]benzamide], under setting [1], the inhibition at 1 µg/mL came to 54.2%. Also, the inhibition at 10 µg/mL under setting [2] is 68.4%.
On to `O=C(CC(c1ccc(O)cc1)c1ccc(Cl)cc1)c1c(O)cccc1O` (centres unmarked) [Compound 4, 3-(4-Chlorophenyl)-1-(2,6-dihydroxyphenyl)-3-(4-hydroxyphenyl)propan-1-one], for which the inhibition at 1 µg/mL under setting [1] amounted to 42.9%. Moreover, the inhibition at 10 µg/mL under setting [2] was 94.1%.
`COc1ccc(CCC(=O)c2cc(Cl)ccc2O)cc1` [Compound 5, 1-(5-Chloro-2-hydroxyphenyl)-3-(4-methoxyphenyl)propan-1-one]: the inhibition at 1 µg/mL under setting [1] turned out to be 33.3%. The inhibition at 10 µg/mL under setting [2] is 98%.
With `COc1ccc(C(=O)C=Cc2ccccc2OC)c(O)c1` [Compound 6, 1-(2-Hydroxy-4-methoxyphenyl)-3-(2-methoxyphenyl)propen-1-one], the inhibition at 1 µg/mL under setting [1] was 27.8%. The inhibition at 10 µg/mL under setting [2] was 61.9%.
For the compound `Cc1ccc(O)c(C(=O)C=Cc2ccc3c(c2)OCCCO3)c1` [Compound 7, 3-(3,4-Dihydro-2H-benzo[b][1,4]dioxepin-7-yl)-1-(2-hydroxy-5-methylphenyl)propen-1-one], the inhibition at 1 µg/mL under setting [1] was 30.4%. Further, the inhibition at 10 µg/mL under setting [2] is 68.7%.
On to `COCc1ccc(C(=O)C=Cc2ccc3c(c2)OCCCO3)c(O)c1` [Compound 8, 3-(3,4-Dihydro-2H benzo[b][1,4]dioxepin-7-yl)-1-[2-hydroxy-4-(methoxylmethyl)phenyl]propen-1-one], for which the inhibition at 1 µg/mL under setting [1] amounted to 35.3%. Besides, the inhibition at 10 µg/mL under setting [2] was determined as 59.9%.
For the compound `C=C(c1ccc(Cl)cc1)c1cc(Cl)ccc1O` [Compound 9, 4-Chloro-2-[(4-chlorophenyl)ethen-2-yl]phenol], the inhibition at 1 µg/mL under setting [1] was 21.9%. Also, the inhibition at 10 µg/mL under setting [2] stood at 99.2%.
The matching figures for `O=C(Nc1ccccc1O)c1cc(C(F)(F)F)cc(C(F)(F)F)c1` [Compound 11, 3,5-Bis(trifluoromethyl)-N-(2-hydroxyphenyl)benzamide]: 28.4% and 44.1%.
For `O=C(Nc1cc(Cl)ccc1O)c1cc(Cl)cc(Cl)c1` [Compound 12, N-(5-Chloro-2-hydroxyphenyl)-3,5-dichlorobenzamide], under setting [1], the inhibition at 1 µg/mL worked out at 68.6%. The inhibition at 10 µg/mL under setting [2] was determined as 87.3%.
On to `O=S(=O)(Nc1cc(Cl)ccc1O)c1cc(Cl)cc(Cl)c1` [Compound 13, N-(5-Chloro-2-hydroxyphenyl)-3,5-dichlorobenesulfonamide], for which the “The rate of inhibitory activity … (%)” value is −7.1% under setting [1] and 63.8% under setting [2].
In the case of `Oc1ccc(Br)cc1CNc1cc(Cl)cc(Cl)c1` [Compound 14, N-[(5-Bromo-2-hydroxyphenyl)methyl]-3,5-dichloroaniline], the inhibition at 1 µg/mL under setting [1] is 21.7%. In addition, the inhibition at 10 µg/mL under setting [2] was found to be 98.9%.
Consider `O=C(NN=Cc1ccc(O)cc1O)c1cc(Cl)ccc1O` [Compound 15, 5-Chloro-2-hydroxybenzoic acid (2,4-dihydroxybenzylidene)hydrazide], for which the inhibition at 1 µg/mL under setting [1] is 15.2%. Also, the inhibition at 10 µg/mL under setting [2] came out at 70.4%.
Consider `CN(C(=O)c1cc(Cl)ccc1O)c1cc(C(F)(F)F)cc(C(F)(F)F)c1` [Compound 16, N-[3,5-Bis(trifluoromethyl)phenyl]-5-chloro-2-hydroxy-N-methylbenzamide], for which the inhibition at 1 µg/mL under setting [1] came out at 36.4%. Further, the inhibition at 10 µg/mL under setting [2] is 91.6%.
Consider `O=C(c1cc(Br)ccc1O)N1CCCc2ccc(C(F)(F)F)cc21` [Compound 17, 1-(5-Bromo-2-hydroxy)benzoyl-7-(trifluoromethyl)-1,2,3,4-tetrahydroquinoline], for which the “The rate of inhibitory activity … (%)” value by setting is: under setting [1], 19.9%; under setting [2], 96.5%.
For `O=C(Nc1cc(Cl)cc(Cl)c1)c1c(O)ccc2ccccc12` [Compound 18, N-(3,5-Dichlorophenyl)-2-hydroxy-1-naphthamide], the inhibition at 1 µg/mL under setting [1] is 85.3%. Under setting [2], the inhibition at 10 µg/mL amounted to 90.2%.
Consider `O=C(Nc1cc(Cl)cc(Cl)c1)c1cc2ccccc2cc1O` [Compound 19, N-(3,5-Dichlorophenyl)-3-hydroxy-2-naphthamide], for which the inhibition at 1 µg/mL under setting [1] is -55.4%. Moreover, the inhibition at 10 µg/mL under setting [2] is 95.1%.
Take `COc1cc(NC(=O)c2cc3ccccc3cc2O)cc(OC)c1` [Compound 20, N-(3,5-Dimethoxyphenyl)-3-hydroxy-2-naphthamide]: under setting [1], the inhibition at 1 µg/mL is -12.1%. Moreover, under setting [2], the inhibition at 10 µg/mL was 86.8%.
Turning to `O=C(Nc1cc(C(F)(F)F)cc(C(F)(F)F)c1)c1ccc2ccccc2c1O` [Compound 21, N-[3,5-Bis(trifluoromethyl)phenyl]-1-hydroxy-2-naphthamide], under setting [1], the inhibition at 1 µg/mL came to 89.6%. Moreover, under setting [2], the inhibition at 10 µg/mL worked out at 95%.
`O=C(Nc1ccc(S(=O)(=O)F)cc1)c1ccc2ccccc2c1O` [Compound 22, {[(1-Hydroxynaphthalen-2-yl)carbonyl]amino}benzenesulfonyl fluoride]: the “The rate of inhibitory activity … (%)” value runs as follows: under setting [1], 37.0%; under setting [2], 92.9%.
For the compound `O=C(Nc1ccc(S(=O)(=O)F)cc1)c1cc(N=Nc2cc(Cl)ccc2Cl)c2ccccc2c1O` [Compound 23, 4-({[4-(2,5-Dichlorophenyl)azo-1-hydroxynaphthalen-2-yl]-carbonyl}amino)benzenesulfonyl fluoride], under “4 h”, the inhibition at 1 µg/mL is 75.7% and the inhibition at 10 µg/mL was 96.6%.
On to `O=C(Nc1cc(C(F)(F)F)cc(C(F)(F)F)c1)c1cc(Cl)cnc1O` [Compound 24, N-[3,5-Bis(trifluoromethyl)phenyl]-5-chloro-2-hydroxypyridine-3-carboxamide], for which the inhibition at 1 µg/mL under setting [1] was determined as 58.1%. Besides, under setting [2], the inhibition at 10 µg/mL was determined as 82.2%.
On to `O=C(Nc1cc(C(F)(F)F)ccc1Cl)c1cc(Cl)cnc1O` [Compound 25, N-[2-Chloro-5-(trifluoromethyl)phenyl]-5-chloro-2-hydroxynicotinamide], for which the inhibition at 1 µg/mL under setting [1] was found to be 85.4%. The inhibition at 10 µg/mL under setting [2] stood at 86.9%.
Take `O=C(Nc1cc(C(F)(F)F)cc(C(F)(F)F)c1)c1ncccc1O` [Compound 27, N-[3,5-Bis(trifluoromethyl)phenyl]-3-hydroxypyridine-2-carboxamide]: the inhibition at 1 µg/mL under setting [1] was determined as 68.5%. Under setting [2], the inhibition at 10 µg/mL is 47.3%.
On to `O=C(Nc1cc(C(F)(F)F)cc(C(F)(F)F)c1)c1c(O)[nH]c2cc(Cl)ccc12` [Compound 28, N-[3,5-Bis(trifluoromethyl)phenyl]-6-chloro-2-hydroxyindole-3-carboxamide], for which the inhibition at 1 µg/mL under setting [1] is 16.3%. Under setting [2], the inhibition at 10 µg/mL was determined as 41.7%.
For the compound `O=C(Nc1cc(C(F)(F)F)cc(C(F)(F)F)c1)c1nc2ccccc2nc1O` [Compound 29, N-[3,5-Bis(trifluoromethyl)phenyl]-3-hydroxyquinoxaline-2-carboxamide], the inhibition at 1 µg/mL under setting [1] is 46.3%. The inhibition at 10 µg/mL under setting [2] came out at 73%.
Turning to `O=C(Nc1ccc(Cl)cc1)c1cc2c(cc1O)[nH]c1ccccc12` [Compound 30, N-(4-Chlorophenyl)-2-hydroxy-9H-carbazole-3-carboxamide], the inhibition at 1 µg/mL under setting [1] came out at 76.5%. Moreover, under setting [2], the inhibition at 10 µg/mL was 98.1%.
In the case of `O=C(Nc1cccc2ccccc12)c1ccccc1O` [Compound 31, 2-Hydroxy-N-(1-naphthyl)benzamide], the inhibition at 1 µg/mL under setting [1] turned out to be 13.3%. Under setting [2], the inhibition at 10 µg/mL turned out to be 93.2%.
Take `O=C(Nc1cccc2ccccc12)c1cc(Cl)ccc1O` [Compound 32, 5-Chloro-2-hydroxy-N-(1-naphthyl)benzamide]: the inhibition at 1 µg/mL under setting [1] came to 89.3%. Also, under setting [2], the inhibition at 10 µg/mL was 96.3%.
Consider `COc1cc(NC(=O)c2cc(Cl)ccc2O)cc2ccccc12` [Compound 33, 5-Chloro-2-hydroxy-N-(4-methoxynaphthalen-2-yl)benzamide], for which the inhibition at 1 µg/mL under setting [1] is 95.1%. In addition, the inhibition at 10 µg/mL under setting [2] is 99.5%.
With `COc1cc(NC(=O)c2cc(Cl)ccc2OC(C)=O)cc2ccccc12` [Compound 34, 2-Acetoxy-5-Chloro-N-(4-methoxynaphthalen-2-yl)benzamide], the inhibition at 1 µg/mL under setting [1] came out at 90.5%. Also, under setting [2], the inhibition at 10 µg/mL was 98.5%.
On the same counts, the results for `CCOC(=O)c1c(NC(=O)c2cc(Cl)ccc2O)sc2c1CCCC2` [Compound 35, 2-(5-Chloro-2-hydroxybenzoyl)amino-4,5,6,7-tetrahydrobenzo[b]-thiophene-3-carboxylic acid ethyl ester] are 88.2% and 85.4%.
